Columns and labels:
K. pneumoniae EN0233 = experiment: MIC; format: cell-based; conditions: combination FdUrd+trimethoprim+uridine, Table 19
S. flexneri APV00906 = experiment: microbe, parasite or virus in culture; format: cell-based; conditions: combination FdUrd+trimethoprim+uridine, Table 22A
Text: (§1) Inhibition of Heliobacter is important in view of increasing resistance and its association to gastric cancer.

E. coli strain no 2 = experiment: MIC vs E. coli LMG 15862, penicillin resistant; conditions: Table 26B
S. aureus no. 11 = experiment: MIC; format: cell-based
A. baumannii EN017 = format: cell-based, Acinetobacter baumannii; conditions: combination FdUrd+trimethoprim+uridine, Table 8
E. coli EN013 = format: cell-based, Escherichia coli; conditions: combination FdUrd+trimethoprim+uridine, Table 8
K. pneumoniae EN0437 = experiment: MIC, colistinR; format: cell-based; conditions: combination FdUrd+trimethoprim+uridine, Table 19
S. aureus strain no 13 = experiment: MIC vs S. aureus LMG 15975, MRSA; conditions: Uridine 0 μg/ml
E. coli EN003 = experiment: microbe, parasite or virus in culture; format: cell-based, Escherichia coli; conditions: combination FdUrd+trimethoprim+uridine, Table 8
K. pneumoniae EN010 = experiment: MIC, WT; format: cell-based, Klebsiella pneumoniae; conditions: combination FdUrd+trimethoprim+uridine, Table 8
E. coli EN0135 = experiment: MIC, ESBL (SHV-2a); format: cell-based; conditions: combination FdUrd+trimethoprim+uridine, Table 19
P. aeruginosa EN015 = format: cell-based, Pseudomonas aeruginosa; conditions: combination FdUrd+trimethoprim+uridine, Table 8
[1] = test system: Helicobacter pylori APV00918; experiment: MIC; format: cell-based; conditions: combination FdUrd+trimethoprim+uridine, Table 22A
Text: as §1

[2] = test system: Helicobacter pylori ATTC43504; experiment: MIC; format: cell-based; conditions: combination FdUrd+trimethoprim+uridine, Table 22A
Text: as §1

S. aureus V86 = experiment: MIC; format: cell-based; conditions: Uridine 0 μg/ml
K. pneumoniae EN0436 = experiment: MIC, colistinR; format: cell-based; conditions: combination FdUrd+trimethoprim+uridine, Table 19
E. coli EN0138 = experiment: MIC, ESBL (CTX-M-9); format: cell-based; conditions: combination FdUrd+trimethoprim+uridine, Table 19
K. pneumoniae EN011 = format: cell-based, Klebsiella pneumoniae; conditions: combination FdUrd+trimethoprim+uridine, Table 8
S. aureus V308 = experiment: MIC; format: cell-based
K. pneumoniae EN0401 = experiment: MIC, Carbapenemase + ESBL; format: cell-based; conditions: combination FdUrd+trimethoprim+uridine, Table 19
S. marescens EN0454 = experiment: MIC; format: cell-based, Serratia marescens; conditions: combination FdUrd+trimethoprim+uridine, Table 8
P. aeruginosa EN005 = conditions: combination FdUrd+trimethoprim+uridine, Table 8
K. pneumoniae EN0143 = experiment: MIC, ESBL (SHV-12); format: cell-based; conditions: combination FdUrd+trimethoprim+uridine, Table 19
E. coli EN0139 = experiment: MIC, ESBL (CTX-M-15); format: cell-based; conditions: combination FdUrd+trimethoprim+uridine, Table 19
S. aureus no. 12 = experiment: MIC vs S. aureus LMG 10147, MSSA; format: cell-based, Staphylococcus aureus; conditions: Uridine 0 μg/ml
K. pneumoniae EN0144 = experiment: MIC, MBL (VIM-1); format: cell-based; conditions: combination FdUrd+trimethoprim+uridine, Table 19
K. pneumoniae EN0262 = experiment: MIC, ESBL (+), KPC+; format: cell-based; conditions: combination FdUrd+trimethoprim+uridine, Table 19 and 21
[3] = Iclaprim 0.008 μg/ml, Uridine 0 μg/ml
[4] = Iclaprim 0.008 μg/ml, Uridine 100 μg/ml
[5] = Iclaprim 0.03 μg/ml, Uridine 0 μg/ml
[6] = Iclaprim […], Uridine 100 μg/ml

SMILES: O=c1[nH]c(=O)n([C@H]2C[C@H](O)[C@@H](CO)O2)cc1F [FdUrd, Fluorodeoxyuridine]
- MIC (K. pneumoniae EN0233): 0.5 µg/mL
- MIC (S. flexneri APV00906): >4 µg/mL
- MIC FdUrd (E. coli strain no 2; Iclaprim 0, Uridine 0 μg/ml): >16 µg/mL
- MIC FdUrd (E. coli strain no 2; Iclaprim 0, Uridine 100 μg/ml): >16 µg/mL
- MIC FdUrd (E. coli strain no 2; Iclaprim 0, Uridine 300 μg/ml): >16 µg/mL
- MIC FdUrd (E. coli strain no 2; Iclaprim 0, Uridine 500 μg/ml): >16 µg/mL
- MIC FdUrd (E. coli strain no 2; Iclaprim 0.1, Uridine 0 μg/ml): >8 µg/mL
- MIC FdUrd (E. coli strain no 2; Iclaprim 0.1, Uridine 100 μg/ml): >8 µg/mL
- MIC FdUrd (E. coli strain no 2; Iclaprim 0.2, Uridine 0 μg/ml): >8 µg/mL
- MIC FdUrd (S. aureus no. 11; [3]): >4 µg/mL
- MIC FdUrd (S. aureus no. 11; [4]): >4 µg/mL
- MIC FdUrd (S. aureus no. 11; [5]): >4 µg/mL
- MIC FdUrd (S. aureus no. 11; Iclaprim 0.03 μg/ml, Uridine 100 μg/ml): >4 µg/mL
- MIC FdUrd (S. aureus no. 11; Iclaprim […], Uridine 0 μg/ml): >4 µg/mL
- MIC FdUrd (S. aureus no. 11; [6]): >4 µg/mL
- MIC (A. baumannii EN017): 0.5 µg/mL
- MIC (E. coli EN013): 0.016 µg/mL
- MIC (K. pneumoniae EN0437): >4 µg/mL
- MIC FdUrd (S. aureus strain no 13; Table 26A (isolate not given), Iclaprim 0.015): >0.5 µg/mL
- MIC FdUrd (S. aureus strain no 13; Table 26A (isolate not given), Iclaprim 0.03): >0.5 µg/mL
- MIC FdUrd (S. aureus strain no 13; Table 26A (isolate not given), Iclaprim 0.08): >0.5 µg/mL
- MIC FdUrd (S. aureus strain no 13; Table 30C, Iclaprim 0.008 μg/ml): >4 µg/mL
- MIC FdUrd (S. aureus strain no 13; Table 30C, Iclaprim 0.03 μg/ml): >4 µg/mL
- MIC FdUrd (S. aureus strain no 13; Table 30C, Iclaprim […]): >4 µg/mL
- MIC (E. coli EN003): 0.016 µg/mL
- MIC (K. pneumoniae EN010): 0.5 µg/mL
- MIC (E. coli EN0135): 0.25 µg/mL
- MIC (P. aeruginosa EN015): 1 µg/mL
- MIC [1]: 0.06 µg/mL
- MIC [2]: 0.06 µg/mL
- MIC FdUrd (S. aureus V86; Iclaprim 0.008 μg/ml): >4 µg/mL
- MIC FdUrd (S. aureus V86; Iclaprim 0.03 μg/ml): >4 µg/mL
- MIC FdUrd (S. aureus V86; Iclaprim 0.06 μg/ml): >4 µg/mL
- MIC FdUrd (S. aureus V86; Iclaprim […]): >4 µg/mL
- MIC (K. pneumoniae EN0436): 0.25 µg/mL
- MIC (E. coli EN0138): 0.25 µg/mL
- MIC (K. pneumoniae EN011): 0.064 µg/mL
- MIC FdUrd (S. aureus V308; Iclaprim 0 μg/ml, Uridine 0 μg/ml): >16 µg/mL
- MIC FdUrd (S. aureus V308; Iclaprim 0 μg/ml, Uridine 100 μg/ml): >16 µg/mL
- MIC FdUrd (S. aureus V308; [3]): >4 µg/mL
- MIC FdUrd (S. aureus V308; [4]): >4 µg/mL
- MIC FdUrd (S. aureus V308; [5]): >4 µg/mL
- MIC FdUrd (S. aureus V308; Iclaprim 0.06 μg/ml, Uridine 0 μg/ml): >4 µg/mL
- MIC FdUrd (S. aureus V308; Iclaprim […], Uridine 0 μg/ml): >4 µg/mL
- MIC FdUrd (S. aureus V308; [6]): >4 µg/mL
- MIC (K. pneumoniae EN0401): >4 µg/mL
- MIC (S. marescens EN0454): >4 µg/mL
- MIC (P. aeruginosa EN005): 0.25 µg/mL
- MIC (K. pneumoniae EN0143): >4 µg/mL
- MIC (E. coli EN0139): 0.5 µg/mL
- MIC FdUrd (S. aureus no. 12; Iclaprim 0.008 μg/ml): >4 µg/mL
- MIC FdUrd (S. aureus no. 12; Iclaprim 0.03 μg/ml): >4 µg/mL
- MIC FdUrd (S. aureus no. 12; Iclaprim […]): >4 µg/mL
- MIC (K. pneumoniae EN0144): >4 µg/mL
- MIC (K. pneumoniae EN0262): 2 µg/mL

From patent publication US10828317B2, “Method of treating bacterial infections” (priority 2016, dated 2020)
